Values joined by “and” are separate entries in the source; they are usually repeats but may differ in a detail not shown here. Equal values may be shown once.
Legend:
[1] = Spectrofluorimetry studies: calcium binding constant (Kd) of ion indicators; conditions: 30 mM MOPS, 100 mM KCl buffers; calculated from 8-10 data points; read-out: Kd(Ca^2+)
Procedure: (§1) The excitation and emission spectra of solutions of various ion indicators (concentration 1-2 μM) were recorded in 30 mM MOPS and 100 mM KCl buffers containing 0 to 200 nM free calcium ion. The binding constant values were calculated based on 8-10 data points taken in buffers covering the concentration range appropriate for the Kd value. Spectral curves for derivatives of Compound 7 (with different R substitutents) were recorded using a standard spectrofluorimeter.

[2] = Spectrofluorimetry studies: excitation and emission spectra and ratiometric response to metal ion binding; assay type: physicochemical; conditions: for λabs (UV), (nm): indicator 1-2 μM in 30 mM MOPS, 100 mM KCl buffer; for λemiss (nm) / λexcit (nm): position of maxima for two ratiometric peaks, 30 mM MOPS, 100 mM KCl, 0 to 200 nM free calcium ion
Procedure: as §1
FIGS. 1-3 show excitation and emission spectra for several of the tested compounds. […]

[3] = tested on: Jurkat T-cell leukemia cultured cells; assay: Flow cytometry studies: intracellular calcium response of dye-loaded cells after stimulant; assay type: cell-based; conditions: Jurkat cells loaded with 4 μM cell-permeant compound, 355 nm excitation
Procedure: Jurkat T-cell leukemia cultured cells were washed once with Hanks Buffered Salt Solution (HBSS) containing calcium and resuspended in HBSS at a concentration of 2×10^6/ml. A one (1) mL cell suspension was added to a 12×75 mm test tube. A cell-permeant compound (7e or 7f) was added to the cell suspension at a final concentration of 4 μM. The cell/dye mixture was mixed and placed at 37° C. protected from light for 30 minutes. The sample then was washed once with HBSS pre-warmed to 37° C. and the cell pellet was resuspended in one mL warmed HBSS. The sample rested for 15 minutes at 37° C. protected from light. […] Analysis of the data was performed using a dual parameter plot of time versus fluorescence ratio of the emissions as measured by 495/20:424/44 ratio. […] A plot of time versus fluorescence ratio for cells that have been loaded with the tested compound was collected upon addition of ionomycin or CD3 stimulant after baseline measurement. […] For Compound 7e, the ratio of the mean fluorescence as measured yielded an increase of 3.4× with ionomycin stimulation (A), an expected response which was maintained over time. The ratio of the mean fluorescence as measured gave an increase of 2.8× with CD3 stimulation (B), an expected response which decreased slightly over time. […]

Structure (SMILES)	Kd [1]	λabs (UV), (nm) [2]	λemiss (nm) [2]	λexcit (nm) [2]	increase of ratio of mean fluorescence (495/20:424/44 emission ratio) after stimulant vs baseline ([3]; 1 μM ionomycin stimulation)	increase of ratio of mean fluorescence (495/20:424/44 emission ratio) after stimulant vs baseline ([3]; CD3 stimulation)
Cc1ccc(N(CC(=O)O)CC(=O)O)c(OCCOc2cc3nc(-c4nc5ccccc5s4)oc3cc2N(CC(=O)O)CC(=O)O)c1 [Compound 7i]	309 nM	364 nm	569 nm	361-422 nm		
Cc1ccc(N(CC(=O)O)CC(=O)O)c(OCCOc2cc3nc(-c4cc5c6c(c4)CCCN6CCC5)oc3cc2N(CC(=O)O)CC(=O)O)c1 [Compound 7h]	145 nM	375 nm	435-510 nm	375 nm		
COc1cc(N(C)C)ccc1-c1nc2cc(OCCOc3cc(C)ccc3N(CC(=O)O)CC(=O)O)c(N(CC(=O)O)CC(=O)O)cc2o1 [Compound 7f]	103 nM	363 nm	417-475 nm	363 nm	3.2 ×	2.8 ×
Cc1ccc(N(CC(=O)O)CC(=O)O)c(OCCOc2cc3nc(-c4cc[n+]([O-])cc4)oc3cc2N(CC(=O)O)CC(=O)O)c1 [Compound 7k]	304 nM	357 nm	612 nm	356-425 nm		
Cc1ccc(N(CC(=O)O)CC(=O)O)c(OCCOc2cc3nc(-c4ccc(N(C)C)cc4O)oc3cc2N(CC(=O)O)CC(=O)O)c1 [Compound 7g]	85 nM	363 nm	417-496 nm	363 nm		
Cc1ccc(N(CC(=O)O)CC(=O)O)c(OCCOc2cc3nc(-c4cccc(=O)[nH]4)oc3cc2N(CC(=O)O)CC(=O)O)c1 [Compound 7j]	146 nM	366 nm	567 nm	349-392 nm		

Continued, in another order:

Kd [1]	λabs (UV), (nm) [2]	λemiss (nm) [2]	λexcit (nm) [2]	Structure (SMILES)	increase of ratio of mean fluorescence (495/20:424/44 emission ratio) after stimulant vs baseline ([3]; 1 μM ionomycin stimulation)	increase of ratio of mean fluorescence (495/20:424/44 emission ratio) after stimulant vs baseline ([3]; CD3 stimulation)
156 nM	472 nm	520 nm	472 nm	Cc1ccc(N(CC(=O)O)CC(=O)O)c(OCCOc2cc3nc(-c4cc5cc6c7c(c5oc4=O)CCCN7CCC6)oc3cc2N(CC(=O)O)CC(=O)O)c1 [Compound 7t]		
129 nM	373 nm	496 nm	373 nm	Cc1ccc(N(CC(=O)O)CC(=O)O)c(OCCOc2cc3nc(-c4ccc5cc(N(C)C)ccc5c4)oc3cc2N(CC(=O)O)CC(=O)O)c1 [Compound 7r]		
290 nM	392 nm	586 nm	392 nm	Cc1ccc(N(CC(=O)O)CC(=O)O)c(OCCOc2cc3nc(/C=C/c4ccc(N(C)C)c5ccccc45)oc3cc2N(CC(=O)O)CC(=O)O)c1 [Compound 7p]		
157 nM	330 nm and 440 (non- nm	490 nm	324-364 nm	Cc1ccc(N(CC(=O)O)CC(=O)O)c(OCCOc2cc3nc(-c4ccc5nonc5c4)oc3cc2N(CC(=O)O)CC(=O)O)c1 [Compound 7l]		
80 nM	413 nm	548 nm	413 nm	Cc1ccc(N(CC(=O)O)CC(=O)O)c(OCCOc2cc3nc(/C=C/c4cc5c6c(c4)CCCN6CCC5)oc3cc2N(CC(=O)O)CC(=O)O)c1 [Compound 7q]		

Source: patent publication US8968997B2, “Benzoxazole-based fluorescent metal ion indicators” (Life Technologies Corporation, priority 2008, dated 2015)
